Laboratory results reported in paper PMC12447640, “Design, synthesis, and biological assessment of a novel series of coumarin-tethered thiazole derivatives as potential antibacterial agents” (Frontiers in Chemistry, 2025).

Biological target: T1, DNA gyrase B (E. coli DNA gyrase, supercoiling) (Escherichia coli, UniProt P0AES6)
T1 construct: gene gyrB; with DNA gyrase subunit A (GyrA)
Assay: E. coli DNA gyrase supercoiling microplate assay kit (Inspiralis)
Assay type: biochemical

SMILES	IC50
CC(=NNc1nc(C)c(N=Nc2ccccc2)s1)c1cc2ccc(O)cc2oc1=O [6a, 7-Hydroxy-3-(-1-{2-[4-methyl-5-(phenyldiazenyl)thiazol-2-yl]hydrazono}ethyl)-2H-chromen-2-one]	56.6 µM
CC(=NNc1nc(C)c(N=Nc2ccc(F)cc2)s1)c1cc2ccc(O)cc2oc1=O [6c, 3-(-1-{2-[5-((4-fluorophenyl)diazenyl)-4-methylthiazol-2-yl]hydrazono}ethyl)-7-hydroxy-2H-chromen-2-one]	93.4 µM
